The source of these data is PMC10357585 (Biochemistry, 2023).

In test [1] the target is T1, TcHGXPRT (Trypanosoma cruzi, UniProt Q4DRC3).
T1 sequence (Q4DRC3 1-231): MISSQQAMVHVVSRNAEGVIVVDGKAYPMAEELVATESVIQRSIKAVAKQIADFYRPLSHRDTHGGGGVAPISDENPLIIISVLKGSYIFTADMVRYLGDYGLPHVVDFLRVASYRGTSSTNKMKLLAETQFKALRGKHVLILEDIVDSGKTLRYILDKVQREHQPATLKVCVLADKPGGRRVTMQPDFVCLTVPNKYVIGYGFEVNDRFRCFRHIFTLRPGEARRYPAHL
As to the kind of experiment: Dead-end inhibition studies of TcHGXPRT. It is filed as biochemical.

Another test concerns TcA (HGPRT). To be noted: variable 6-oxopurine, PRPP 1 mM, ref Glockzin et al., 2022.[43]; cited from earlier work.
The next test deals with TcHGPRT. The note with it: variable substrate PRPP (20–215 μM); ref Wenck et al., 2004.[30]; cited from earlier work.
In test [2] the target is T1, TcHGXPRT. As to the kind of experiment: Initial rate studies of TcHGXPRT, GMP biosynthesis. Type of test: biochemical. The note with it: for kcat: GMP biosynthesis; for Ki: Ki,PRPP.
In test [3] the target is T1, TcHGXPRT. Kind of test: Product inhibition studies of TcHGXPRT. To be noted: PRPP 1 mM. It is filed as biochemical.
For another test, the system named is PfHGXPRT. To be noted: read-out: apparent Km, Xan as substrate; cited from earlier work.
Setting [4] is: variable substrate Guanine (10–300 μM) at fixed PRPP levels.
Setting [5] is: variable substrate PRPP (1–78 μM) at fixed Gua levels.

Marks after values point to notes of the source that are not given here.

In the case of `O=c1[nH]c(=O)c2[nH]ccc2[nH]1` [9-deazaxanthine], the Ki on TcHGXPRT [1] is 70 ± 10 µM. In addition, the Inhibition pattern entry on TcHGXPRT [1] (9-deazaxanthine (0–250 μM) vs. variable Xan (3–100 μM), PRPP 1 mM) is reported as “C ^e”; on TcHGXPRT [1] (9-deazaxanthine (0–600 μM) vs. variable PRPP (23–750 μM), Xan 120 μM), “UC ^e”. This compound also returned a Kii on TcHGXPRT [1] (9-deazaxanthine vs. variable PRPP, Xan 120 μM, 37 °C, pH 8.3, 12 mM MgCl2) of 490 ± 40 µM.
As usually defined, the Km is the substrate concentration at which the rate is half of its maximum. Take `Nc1nc2nc[nH]c2c(=O)[nH]1` [Gua, guanine]: in the test on TcA (HGPRT), the Km is 19 ± 1 µM and the kcat is reported as 32 ± 1 ^b s^–1. Further, in the test with TcHGPRT, the KGua is 12 ± 1 ^d μM and the kcat/KGua is listed as 2650 ^d × 10^3 M^–1 s^–1. The kcat on TcHGXPRT [2] (setting [4]) turned out to be 0.46 ± 0.01 s^–1.
Consider `O=c1[nH]cnc2nc[nH]c12` [Hx, hypoxanthine], for which, in the test on TcA (HGPRT), the Km was 13 ± 4 µM and the kcat is 32 ± 1 ^b s^–1.
For the compound `O=P(O)(O)OP(=O)(O)O` [PPi, pyrophosphate], the Inhibition pattern entry at TcHGXPRT [3] (PPi (0–200 μM) vs. variable Xan (2.5–150 μM)) is listed as “NC ^e”. This compound also returned a Kii on TcHGXPRT [3] (PPi vs. variable Xan) of 1400 ± 400 µM. The Ki at TcHGXPRT [3] (read-out: Kis, PPi vs. variable Xan) is 190 ± 40 µM.
With `O=P(O)(O)OC[C@H]1O[C@H](OP(=O)(O)OP(=O)(O)O)[C@H](O)[C@@H]1O` [PRPP, 5-phospho-D-ribose 1-pyrophosphate], in the test on TcHGPRT, the KPRPP is given as 32 ± 5 ^d μM and the kcat/KPRPP was 1010 ^d × 10^3 M^–1 s^–1. Also, on TcHGXPRT [2] (setting [5]), the kcat is recorded as 0.44 ± 0.02 s^–1 and the Ki amounted to 0.6 ± 0.3 µM. On TcHGXPRT [2] (setting [4]), this compound had a Ki of 0.7 ± 0.2 µM.
Regarding `O=c1[nH]c(=O)c2nc[nH]c2[nH]1` [Xan, xanthine], in the test with TcA (HGPRT), the Michaelis constant (Km) was 160 ± 40 µM and the kcat is given as 0.005 ± 0.0006 ^b s^–1. Also, the Michaelis-Menten constant (Km) in the test on PfHGXPRT was 189 to 420 µM.
